In patent US10869858B2, “Therapeutic agent for amyotrophic disorders” (TOHOKU UNIVERSITY, priority 2015, dated 2020):

How the values were obtained:
[1] = system: ALS patient-derived fibroblasts; assay: Inhibitory effect on cell death of ALS patient-derived fibroblasts induced by oxidative stress (BSO 100 μmol/L), Method 1, Cell Counting Kit-8; assay type: cell-based; conditions: 100 μmol/L BSO; compound at 10 and 30 μmol/L; two days with compound; FIG. 1
Protocol: (§1) ALS patient-derived fibroblasts can be used to confirm the inhibitory effect of the compound of the present invention on cell death induced by treating the ALS patient-derived fibroblasts with the glutathione synthesis inhibitor, L-buthionine(S, R)sulfoximine (BSO).
6.4×10^3 Cells per well of ALS patient-derived fibroblasts were seeded in a 96-well cell culture plate using a DMEM medium containing 1% FBS. One day after cell seeding, BSO was mixed in the culture medium so that the concentration thereof was 100 μmol/L. After culturing in the presence of BSO for one day, the compound of Example 1 was mixed in the culture medium so that the concentration thereof is 1, 3, 10 or 30 μmol/L. After culturing in the presence of the compound for another two days, the number of living cells in each well was counted by using Cell Counting Kit-8 (manufactured by Dojindo Laboratories) to calculate cell viability. Here, wells to which both BSO and the compound were not added but distilled water and DMSO that were solvents for BSO and the compound, respectively were added were used as a control of the oxidative stress loading; wells to which both BSO and the compound were added were used as a control for the effect of the test compound.

[2] = system: ALS patient-derived fibroblasts; assay: Cell viability of ALS patient-derived fibroblasts treated with BSO 500 μmol/L, Method 2, Cell Counting Kit-8; assay type: cell-based; conditions: 500 μmol/L BSO; compound at 0.1, 0.3, 1, 3 and 10 μmol/L; three days with compound; FIG. 2
Protocol: as §1
(§2) 3.0×10^3 Cells per well of ALS patient-derived fibroblasts were seeded in a 96-well cell culture plate using a DMEM (low glucose) medium containing 1% FBS. One day after cell seeding, BSO was mixed in the culture medium so that the concentration thereof is 500 μmol/L. After culturing in the presence of BSO for one day, the compound of Example 1 was mixed in the culture medium so that the concentration thereof is 0.1, 0.3, 1, 3 or 10 μmol/L. After culturing in the presence of the compound for another three days, the number of living cells in each well was counted by using Cell Counting Kit-8 (manufactured by Dojindo Laboratories) to calculate cell viability. In addition, the degree of cell damage was measured by using LDH Cytotoxicity Detection Kit (manufactured by Takara Bio Inc.). Here, wells to which both BSO and the compound were not added but distilled water and DMSO that were solvents for BSO and the compound, respectively were added were used as a control of the oxidative stress loading; wells to which both BSO and the compound were added were used as a control for the effect of the test compound.

[3] = system: ALS patient-derived fibroblasts; assay: Degree of cell damage of ALS patient-derived fibroblasts treated with BSO 500 μmol/L, Method 2, LDH Cytotoxicity Detection Kit; assay type: cell-based; conditions: 500 μmol/L BSO; compound at 0.1, 0.3, 1, 3 and 10 μmol/L; three days with compound; FIG. 2
Protocol: as §1, §2

[4] = system: wobbler mice; assay: Rotarod test in ALS animal models (wobbler mice); assay type: in vivo; conditions: 150 mg/kg orally once a day, 16 days after administration start, 10 rpm, n=14; control group 43%; P=0.018
Protocol: To 4-week-old wobbler mice, the compound of Example 1 (150 mg/kg) or a solvent, a 0.5% aqueous solution of methyl cellulose as a control was orally administered at a rate of 10 mL/kg once a day. Sixteen days after administration start date, the animals were placed on a mouse rotarod (manufactured by Muromachi Kikai Co., Ltd.) set at a rotation speed of 10 rpm and the time to fall was measured (rotarod test). The rotarod walking time was measured three times, and the upper limit of one measurement time was 300 seconds.

O=C(CC(C(=O)O)c1c[nH]c2ccccc12)c1ccc(F)cc1F (stereo not shown) [Example 1, 4-(2,4-difluorophenyl)-2-(1H-indol-3-yl)-4-oxobutanoic acid]
inhibition of cell death induced by BSO (cell viability) [1]: statistically significantly inhibited cell death
prevention of low cell viability induced by BSO [2]: statistically significantly prevented the low cell viability
prevention of cytotoxicity (degree of cell damage, LDH) induced by BSO [3]: statistically significantly prevented
occurrence ratio of animals whose rotarod walking time exceeded 300 seconds [4]: 86%
